# Assay results from US10239832B2, “N-(1-hydroxy-3-(pyrrolidinyl)propan-2-yl)pyrrolidine-3-carboxamide derivatives as glucosylceramide synthase inhibitors” (BIOMARIN PHARMACEUTICAL INC., priority 2013, dated 2019).
# Target: T1, GCS (Canis lupus familiaris, UniProt A0A8I3MXG6)
# T1 construct: endogenous in cells; host or cells: MDCK (Madin-Darby canine kidney) cells, whole-cell lysate
# T1 sequence (A0A8I3MXG6 1-394): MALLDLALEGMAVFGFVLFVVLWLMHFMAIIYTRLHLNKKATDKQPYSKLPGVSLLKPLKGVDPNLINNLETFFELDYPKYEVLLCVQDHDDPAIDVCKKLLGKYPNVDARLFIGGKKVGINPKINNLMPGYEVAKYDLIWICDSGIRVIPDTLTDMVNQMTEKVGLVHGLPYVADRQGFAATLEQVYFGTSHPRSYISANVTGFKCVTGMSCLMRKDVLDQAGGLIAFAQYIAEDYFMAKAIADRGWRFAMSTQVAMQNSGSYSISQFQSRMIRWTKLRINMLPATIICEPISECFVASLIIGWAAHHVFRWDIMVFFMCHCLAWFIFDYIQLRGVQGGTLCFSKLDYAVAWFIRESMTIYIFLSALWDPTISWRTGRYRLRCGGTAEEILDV
# Test: GCS enzymatic assay (MDCK cell lysate, NBD-ceramide to glucosylceramide, LC/MS)
# Type: biochemical, canine
# Conditions: Table 2, the table does not say which of the assays; for IC50: class symbols A, B, C, read-out: Data Range (IC50 values); for Data Range (% inhibition): class symbols D, E, F, NA (not active)
# Procedure: This assay was modified based on the study by Larsen et al. (J. Lipid Res. 2011, 53, 282). Madin-Darby canine kidney (MDCK) cell lysate was prepared using M-PER Mammalian Protein Extraction Reagent (Thermal Scientific) in the presence of a protease inhibitor cocktail (Roche). Protein concentration was determined using BCA assay kit (Pierce). […] 0.1% DMSO was used as mock treatment or control. The reaction was terminated by adding 100 μL acetonitrile solution and subjected to LC/MS analysis.
# The quantitative analysis of NBD-Ceramide and glucosylceramide was performed on a Shimadzu ultra-fast liquid chromatography (Shimadzu, Japan) coupled with API 4000 triple quadrupole mass spectrometer (Applied Biosystems, Concord, Ontario, Canada). Sample separation was conducted on a Waters Xbridge™ BEH130 C18, 100 mm×4.6 mm i.d, 3.5 μm (Milford, Mass., USA). The mobile phase consisted of water and acetonitrile supplemented with 0.1% formic acid (v/v). The flow rate was 1.0 mL/min. The initial mobile phase was 20% acetonitrile and was ramped in a linear fashion to 50% acetonitrile in 0.4 min. From 0.4 to 1.5 min, the gradient was ramped to 98% acetonitrile, and then was held at […] until 8.0 min. Acetonitrile was reset to 20% in 1.5 min, and maintained until 10.0 min. The total run time was 10.0 min. The MS/MS detection was performed in ESI positive mode. The mass transition of NBD-Ceramide was m/z 576.36→558.40 under the collision energy of 15 V, and the mass transition of glucosylceramide was m/z 738.35→558.40 under 21V collision energy. The cell lysate was diluted with equal volume of acetonitrile. Aliquots of 50 μL diluted samples were added to 1.5 mL tubes, and 100 μL of acetonitrile containing internal standard (100 ng/mL tolbutamide) were added for protein precipitation. The mixture were vortexed and then centrifuged at 13000 rpm for 10 min. 70 μL of supernatant were mixed with 140 μL of H2O and the final solution were injected for LC/MS/MS analysis and IC50's and/or percent inhibitions calculated.
Compound,IC50 [nM],Data Range (% inhibition)
"O=C(N[C@H](CN1CCCC1)[C@H](O)c1ccc(OC2CC2)c(Cl)c1)C1CCN(c2ccc(Cl)cc2)C1 (stereo in doubt) [Compound 3, (S)-N-((1R,2R)-1-(3-chloro-4-cyclopropoxyphenyl)-1-hydroxy-3-(pyrrolidin-1-yl)propan-2-yl)-1-(4-chlorophenyl)pyrrolidine-3-carboxamide]",1 to 30,–
"O=C(N[C@H](CN1CCCC1)[C@H](O)c1ccc(OC2CC2)c(Cl)c1)C1CCN(c2ccc(Cl)cc2)C1 (stereo in doubt) [Compound 3B, (R)-N-((1R,2R)-1-(3-chloro-4-cyclopropoxyphenyl)-1-hydroxy-3-(pyrrolidin-1-yl)propan-2-yl)-1-(4-chlorophenyl)pyrrolidine-3-carboxamide]",–,F (1-49% (or less than 50%))
"O=C(N[C@H](CN1CCCC1)[C@H](O)c1ccc2c(c1)OCCO2)C1CCN(c2ccc(Cl)c(Cl)c2)C1 (stereo in doubt) [Compound 8, (R)-1-(3,4-dichlorophenyl)-N-((1R,2R)-1-(2,3-dihydrobenzo[b][1,4]dioxin-6-yl)-1-hydroxy-3-(pyrrolidin-1-yl)propan-2-yl)pyrrolidine-3-carboxamide]",–,D (75-100%)
"O=C(N[C@H](CN1CCCC1)[C@H](O)c1ccc2c(c1)OCCO2)C1CCN(c2ccc(Cl)c(Cl)c2)C1 (stereo in doubt) [Compound 8D, (S)-1-(3,4-dichlorophenyl)-N-((1R,2R)-1-(2,3-dihydrobenzo[b][1,4]dioxin-6-yl)-1-hydroxy-3-(pyrrolidin-1-yl)propan-2-yl)pyrrolidine-3-carboxamide]",–,E (50-74% (or less than 75%))
"O=C(N[C@H](CN1CCCC1)[C@H](O)c1ccc2c(c1)OCCO2)C1CCN(c2ccc(Cl)cc2Cl)C1 (stereo in doubt) [Compound 12, (R)-1-(2,4-dichlorophenyl)-N-((1R,2R)-1-(2,3-dihydrobenzo[b][1,4]dioxin-6-yl)-1-hydroxy-3-(pyrrolidin-1-yl)propan-2-yl)pyrrolidine-3-carboxamide]",1 to 30,–
"O=C(N[C@H](CN1CCCC1)[C@H](O)c1ccc2c(c1)OCCO2)C1CCN(c2ccc(Cl)cc2Cl)C1 (stereo in doubt) [Compound 12D, (S)-1-(2,4-dichlorophenyl)-N-((1R,2R)-1-(2,3-dihydrobenzo[b][1,4]dioxin-6-yl)-1-hydroxy-3-(pyrrolidin-1-yl)propan-2-yl)pyrrolidine-3-carboxamide]",–,F (1-49% (or less than 50%))
"O=C(N[C@H](CN1CCCC1)[C@H](O)c1ccc2c(c1)OCCO2)C1CCN(c2ccc3cc(F)ccc3c2)C1 (stereo in doubt) [Compound 14, (S)-N-((1R,2R)-1-(2,3-dihydrobenzo[b][1,4]dioxin-6-yl)-1-hydroxy-3-(pyrrolidin-1-yl)propan-2-yl)-1-(6-fluoronaphthalen-2-yl)pyrrolidine-3-carboxamide]",1 to 30,–
"O=C(N[C@H](CN1CCCC1)[C@H](O)c1ccc2c(c1)OCCO2)C1CCN(c2ccc3cc(F)ccc3c2)C1 (stereo in doubt) [Compound 14D, (R)-N-((1R,2R)-1-(2,3-dihydrobenzo[b][1,4]dioxin-6-yl)-1-hydroxy-3-(pyrrolidin-1-yl)propan-2-yl)-1-(6-fluoronaphthalen-2-yl)pyrrolidine-3-carboxamide]",–,F (1-49% (or less than 50%))
"CC(C)Oc1ccc(C(O)[C@@H](CN2CCCC2)NC(=O)[C@H]2CCN(c3ccc(F)cc3)C2)cn1 (stereo in doubt) [Compound 31B, (S)-1-(4-fluorophenyl)-N-((1S,2R)-1-hydroxy-1-(6-isopropoxypyridin-3-yl)-3-(pyrrolidin-1-yl)propan-2-yl)pyrrolidine-3-carboxamide]",–,E (50-74% (or less than 75%))
"O=C(NC(CN1CCCC1)[C@H](O)c1cc(F)c2c(c1)OCCO2)[C@H]1CCN(c2ccc3ccccc3n2)C1 (stereo in doubt) [Compound 68C, (S)-N-((1R,2S)-1-(8-fluoro-2,3-dihydrobenzo[b][1,4]dioxin-6-yl)-1-hydroxy-3-(pyrrolidin-1-yl)propan-2-yl)-1-(quinolin-2-yl)pyrrolidine-3-carboxamide]",–,F (1-49% (or less than 50%))
"N#Cc1ccc(N2CCC(C(=O)N[C@H](CN3CCCC3)C(O)c3ccc(OC4CC4)c(Cl)c3)C2)cc1 (stereo in doubt) [Compound 152C, (R)-N-((1S,2R)-1-(3-chloro-4-cyclopropoxyphenyl)-1-hydroxy-3-(pyrrolidin-1-yl)propan-2-yl)-1-(4-cyanophenyl)pyrrolidine-3-carboxamide]",30 to 100,–
"O=C(N[C@H](CN1CCCC1)[C@H](O)c1ccc2c(c1)OCCO2)[C@@H]1CCN(c2ccc(Cl)cc2)C1 [Compound 1, (R)-1-(4-chlorophenyl)-N-((1R,2R)-1-(2,3-dihydrobenzo[b][1,4]dioxin-6-yl)-1-hydroxy-3-(pyrrolidin-1-yl)propan-2-yl)pyrrolidine-3-carboxamide]",1 to 30,–
"O=C(N[C@H](CN1CCCC1)[C@H](O)c1ccc2c(c1)OCCO2)C1CCN(c2ccc(Cl)cc2)C1 (stereo partly drawn) [Compound 1C, 1-(4-chlorophenyl)-N-((1R,2R)-1-(2,3-dihydrobenzo[b][1,4]dioxin-6-yl)-1-hydroxy-3-(pyrrolidin-1-yl)propan-2-yl)pyrrolidine-3-carboxamide]",1 to 30,–
"O=C(N[C@H](CN1CCCC1)[C@H](O)c1ccc2c(c1)OCCO2)[C@H]1CCN(c2ccc(Cl)cc2)C1 [Compound 1D, (S)-1-(4-chlorophenyl)-N-((1R,2R)-1-(2,3-dihydrobenzo[b][1,4]dioxin-6-yl)-1-hydroxy-3-(pyrrolidin-1-yl)propan-2-yl)pyrrolidine-3-carboxamide]",30 to 100,–
"O=C(N[C@H](CN1CCCC1)[C@H](O)c1cc(F)c2c(c1)OCCO2)[C@@H]1CCN(c2ccc(Cl)cc2)C1 [Compound 2, (R)-1-(4-chlorophenyl)-N-((1R,2R)-1-(8-fluoro-2,3-dihydrobenzo[b][1,4]dioxin-6-yl)-1-hydroxy-3-(pyrrolidin-1-yl)propan-2-yl)pyrrolidine-3-carboxamide]",1 to 30,–
"O=C(N[C@H](CN1CCCC1)[C@H](O)c1cc(F)c2c(c1)OCCO2)C1CCN(c2ccc(Cl)cc2)C1 (stereo partly drawn) [Compound 2A, 1-(4-chlorophenyl)-N-((1R,2R)-1-(8-fluoro-2,3-dihydrobenzo[b][1,4]dioxin-6-yl)-1-hydroxy-3-(pyrrolidin-1-yl)propan-2-yl)pyrrolidine-3-carboxamide]",1 to 30,–
"O=C(N[C@H](CN1CCCC1)[C@H](O)c1cc(F)c2c(c1)OCCO2)[C@H]1CCN(c2ccc(Cl)cc2)C1 [Compound 2B, (S)-1-(4-chlorophenyl)-N-((1R,2R)-1-(8-fluoro-2,3-dihydrobenzo[b][1,4]dioxin-6-yl)-1-hydroxy-3-(pyrrolidin-1-yl)propan-2-yl)pyrrolidine-3-carboxamide]",–,F (1-49% (or less than 50%))
"O=C(N[C@H](CN1CCCC1)[C@H](O)c1ccc(OC2CC2)c(Cl)c1)C1CCN(c2ccc(Cl)cc2)C1 (stereo partly drawn) [Compound 3A, N-((1R,2R)-1-(3-chloro-4-cyclopropoxyphenyl)-1-hydroxy-3-(pyrrolidin-1-yl)propan-2-yl)-1-(4-chlorophenyl)pyrrolidine-3-carboxamide]",30 to 100,–
